≈ marks a conversion by molar mass, not a printed value.
Key:
[1] = biological target: T1, Protein kinase C theta type (Homo sapiens, UniProt Q04759); test: Inhibition of PKC theta (unknown origin) in presence of ATP at Km
[2] = Selectivity ratio of inhibition of CLK1 (unknown origin) to inhibition of PKC theta (unknown origin) at 1 mM ATP concentration
[3] = Selectivity ratio of inhibition of PKCeta (unknown origin) to inhibition of PKC theta (unknown origin) at 1 mM ATP concentration
[4] = Selectivity ratio of inhibition of RSK3 (unknown origin) to inhibition of PKC theta (unknown origin) at 1 mM ATP concentration
[5] = Efflux ratio of apparent permeability across basolateral to apical side over apical to basolateral side in human Caco-2 cells; assay type: ADME, cell-based
[6] = biological target: T2, Protein kinase C alpha type (Homo sapiens, UniProt P17252); test: Inhibition of PKC alpha (unknown origin) in presence of 1 mM ATP
[7] = Selectivity ratio of inhibition of GSK3beta (unknown origin) to inhibition of PKC theta (unknown origin) at 1 mM ATP concentration
[8] = Selectivity ratio of inhibition of FLT3 (unknown origin) to inhibition of PKC theta (unknown origin) at 1 mM ATP concentration
[9] = Selectivity ratio of inhibition of PKACalpha (unknown origin) to inhibition of PKC theta (unknown origin) at 1 mM ATP concentration
[10] = Selectivity ratio of inhibition of AURB (unknown origin) to inhibition of PKC theta (unknown origin) at 1 mM ATP concentration
[11] = Solubility of the compound; assay type: physicochemical
[12] = Apparent permeability of a compound in human Caco-2 cells; assay type: ADME, cell-based
[13] = Selectivity ratio of inhibition of TRKA (unknown origin) to inhibition of PKC theta (unknown origin) at 1 mM ATP concentration
[14] = Selectivity ratio of inhibition of PKCbeta1 (unknown origin) to inhibition of PKC theta (unknown origin) at 1 mM ATP concentration
[15] = Selectivity ratio of inhibition of PI3K-C2beta (unknown origin) to inhibition of PKC theta (unknown origin) at 1 mM ATP concentration
[16] = Selectivity ratio of inhibition of PKCdelta (unknown origin) to inhibition of PKC theta (unknown origin) at 1 mM ATP concentration
[17] = Oral bioavailability in rat; assay type: ADME, organism-based; conditions: in vivo
[18] = biological target: T2, Protein kinase C alpha type; test: Inhibition of PKC alpha (unknown origin) in presence of ATP at Km
[19] = biological target: T1, Protein kinase C theta type; test: Inhibition of PKC theta (unknown origin) in presence of 1 mM ATP
[20] = Selectivity ratio of inhibition of MSK1 (unknown origin) to inhibition of PKC theta (unknown origin) at 1 mM ATP concentration
[21] = Selectivity ratio of inhibition of HGK (unknown origin) to inhibition of PKC theta (unknown origin) at 1 mM ATP concentration
[22] = biological target: T1, Protein kinase C theta type; test: Inhibition of PKC theta in TCR-stimulated human PBMC assessed as inhibition of IL-2 release; assay type: cell-based
[23] = Clearance in rat; assay type: ADME; conditions: in vivo
[24] = Metabolic stability in human hepatocytes assessed as intrinsic clearance measured per 10^6 cells; assay type: ADME, cell-based, Hepatocyte; conditions: read-out: CLH
[25] = Volume of distribution at steady state in rat; assay type: ADME; conditions: in vivo, read-out: Vdss
[26] = biological target: Voltage-gated inwardly rectifying potassium channel KCNH2 (Homo sapiens, UniProt Q12809); test: Inhibition of hERG; assay type: toxicity
Sequence of Voltage-gated inwardly rectifying potassium channel KCNH2 (Q12809 whole entry): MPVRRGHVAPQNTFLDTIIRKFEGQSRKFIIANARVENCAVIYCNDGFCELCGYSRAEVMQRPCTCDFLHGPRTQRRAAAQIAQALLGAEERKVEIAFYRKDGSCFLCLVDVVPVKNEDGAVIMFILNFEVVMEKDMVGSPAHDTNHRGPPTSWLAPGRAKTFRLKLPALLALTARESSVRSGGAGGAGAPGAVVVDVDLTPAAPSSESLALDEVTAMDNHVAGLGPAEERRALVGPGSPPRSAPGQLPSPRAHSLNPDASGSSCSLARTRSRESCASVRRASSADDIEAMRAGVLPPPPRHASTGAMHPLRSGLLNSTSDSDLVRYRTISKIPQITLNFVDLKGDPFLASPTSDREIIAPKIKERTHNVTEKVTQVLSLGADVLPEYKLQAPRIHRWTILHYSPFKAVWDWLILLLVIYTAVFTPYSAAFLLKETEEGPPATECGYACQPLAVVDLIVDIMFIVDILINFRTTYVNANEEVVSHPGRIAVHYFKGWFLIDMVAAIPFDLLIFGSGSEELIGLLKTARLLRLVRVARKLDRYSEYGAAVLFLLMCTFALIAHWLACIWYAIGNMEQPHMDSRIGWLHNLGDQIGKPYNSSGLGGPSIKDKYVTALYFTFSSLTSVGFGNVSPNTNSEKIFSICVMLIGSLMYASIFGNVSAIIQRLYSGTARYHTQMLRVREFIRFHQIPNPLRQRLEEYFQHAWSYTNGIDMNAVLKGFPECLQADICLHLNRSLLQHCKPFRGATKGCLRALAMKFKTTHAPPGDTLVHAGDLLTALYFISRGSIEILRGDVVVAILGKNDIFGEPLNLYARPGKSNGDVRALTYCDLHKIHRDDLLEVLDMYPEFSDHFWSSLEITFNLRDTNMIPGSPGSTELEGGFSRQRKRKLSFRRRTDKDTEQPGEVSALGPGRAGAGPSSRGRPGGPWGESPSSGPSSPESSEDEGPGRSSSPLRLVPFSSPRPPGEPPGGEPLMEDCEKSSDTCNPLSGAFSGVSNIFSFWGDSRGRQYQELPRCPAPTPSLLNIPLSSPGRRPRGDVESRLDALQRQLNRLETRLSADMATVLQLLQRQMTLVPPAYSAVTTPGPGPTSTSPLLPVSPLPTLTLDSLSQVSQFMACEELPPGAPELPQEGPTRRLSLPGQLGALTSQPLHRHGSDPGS

T1 sequence (Q04759 whole entry): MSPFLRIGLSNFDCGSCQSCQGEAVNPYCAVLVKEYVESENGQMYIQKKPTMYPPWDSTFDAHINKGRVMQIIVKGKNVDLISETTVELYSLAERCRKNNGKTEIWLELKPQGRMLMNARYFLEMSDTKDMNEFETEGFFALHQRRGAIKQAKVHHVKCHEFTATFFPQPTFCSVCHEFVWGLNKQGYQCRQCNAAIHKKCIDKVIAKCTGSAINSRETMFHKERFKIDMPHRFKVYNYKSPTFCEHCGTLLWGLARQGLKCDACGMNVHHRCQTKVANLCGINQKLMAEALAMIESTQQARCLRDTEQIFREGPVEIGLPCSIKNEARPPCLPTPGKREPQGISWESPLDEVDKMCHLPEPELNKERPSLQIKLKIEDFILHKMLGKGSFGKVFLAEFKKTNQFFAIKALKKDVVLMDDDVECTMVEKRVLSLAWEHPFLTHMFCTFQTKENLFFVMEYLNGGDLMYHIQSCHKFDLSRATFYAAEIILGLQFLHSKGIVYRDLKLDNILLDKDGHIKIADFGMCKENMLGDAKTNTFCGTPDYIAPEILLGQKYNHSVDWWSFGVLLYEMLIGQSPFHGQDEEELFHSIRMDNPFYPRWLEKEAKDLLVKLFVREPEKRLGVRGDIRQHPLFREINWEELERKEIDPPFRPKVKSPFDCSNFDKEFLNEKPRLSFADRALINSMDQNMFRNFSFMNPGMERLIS

Structure (SMILES)	IC50 [1] [nM]	Selectivity ratio [2]	Selectivity ratio [3]	Selectivity ratio [4]	efflux ratio [5]	IC50 [6] [nM]	Selectivity ratio [7]	Selectivity ratio [8]	Selectivity ratio [9]	Selectivity ratio [10]	solubility [11] [µM]	Papp [12] [×10⁻⁶ cm/s]	Selectivity ratio [13]	Selectivity ratio [14]	bioavailability [17] [%]	IC50 [18] [nM]	IC50 [19] [nM]	IC50 [22] [nM]	hepatocyte CLint [24] [µL/min/1e6 cells]	IC50 [26] [nM]	also measured
CC1CCN2c3nc(ccc3C(=O)NC2(C)C)-n2c(=O)[nH]c3nccc(c32)O1 (stereo not drawn)	< 0.1	1620	997	2260	65	487	17900	2450	25000	253	25 (≈ 9.51 µg/mL)	0.9	5180	911	17	57	0.1	6	–	–	Selectivity ratio [15]: 4640; Selectivity ratio [16]: 677; Selectivity ratio [20]: 5160; Selectivity ratio [21]: 14500
CC1CCC(C)n2ccc(=O)c3ccc(nc32)-n2c(=O)[nH]c3nccc(c32)O1 (stereo not drawn)	< 0.5	> 6250	482	4910	8	790	4540	1310	> 6250	2850	123 (≈ 46.4 µg/mL)	4	2200	262	20	140	1.6	26	< 4	–	clearance [23]: 36 mL/min/kg; Selectivity ratio [15]: 3050; Selectivity ratio [16]: 346; Selectivity ratio [20]: 945; Vd [25]: 2.7 L/kg; Selectivity ratio [21]: > 6250
CC1CCCOc2ccnc3[nH]c(=O)n(c23)-c2ccc3nccc1c3n2 (stereo not drawn)	< 0.5	–	–	–	0.8	550	–	–	–	–	–	31	–	–	–	59	< 0.5	4.2	36	24000	–
CC1CCOc2ccnc3ccc(nc23)-n2c(=O)[nH]c3nccc(c32)O1 (stereo not drawn)	4.2	–	–	–	1	7900	–	–	–	–	–	26	–	–	–	980	54	255	< 4	> 30000	–
CC1CCC(C)Oc2ccnc3[nH]c(=O)n(c23)-c2nc(c(C(N)=O)cc2F)O1 (stereo not drawn)	< 0.5	–	–	–	7	620	–	–	–	–	145 (≈ 56.2 µg/mL)	8	–	–	69	49	0.9	12	< 4	–	–
CC1CCC(C)n2ccc(=O)c3cc(F)c(nc32)-n2c(=O)[nH]c3nccc(c32)O1 (stereo not drawn)	< 0.5	–	–	–	13	550	–	–	–	–	271 (≈ 107 µg/mL)	2.1	–	–	40	49	< 0.5	17	< 4	–	clearance [23]: 41 mL/min/kg; Vd [25]: 3.2 L/kg
CC1CCn2ccc(=O)c3cc(F)c(nc32)-n2c(=O)[nH]c3nccc(c32)O1 (stereo not drawn)	< 0.5	–	–	–	53	3700	–	–	–	–	274 (≈ 101 µg/mL)	0.5	–	–	–	440	5	27	< 4	–	–
CC1CCN(C)c2ccnc3cc(F)c(nc23)-n2c(=O)[nH]c3nccc(c32)O1 (stereo not drawn)	< 0.5	–	–	–	–	190	–	–	–	–	–	–	–	–	–	25	< 0.5	1.9	10	2400	–
CC1CCN(C)c2c(F)cnc3cc(F)c(nc23)-n2c(=O)[nH]c3nccc(c32)O1 (stereo not drawn)	< 0.5	858	62	649	1	934	187	174	754	> 8330	–	18	353	709	58	56	1.2	9.1	4	13000	Selectivity ratio [15]: 332; Selectivity ratio [16]: 166; Selectivity ratio [20]: 576; Selectivity ratio [21]: 36
CC1CCCOc2ccnc3[nH]c(=O)n(c23)-c2ccc3c(=O)ccn1c3n2 (stereo not drawn)	< 0.5	–	–	–	12	679	–	–	–	–	296 (≈ 108 µg/mL)	3.1	–	–	–	68	< 0.5	7.6	17	–	–
CC1CCCOc2ccnc3[nH]c(=O)n(c23)-c2cccc(n2)O1 (stereo not drawn)	< 0.5	–	–	–	0.7	2200	–	–	–	–	180 (≈ 56.2 µg/mL)	32	–	–	–	259	3.6	28	32	–	–
CC1CCN(C)c2ccnc3ccc(nc23)-n2c(=O)[nH]c3nccc(c32)O1 (stereo not drawn)	< 0.5	–	–	–	2	940	–	–	–	–	–	14	–	–	–	82	1	6.5	< 4	< 400	–
CC1CC(C)Oc2ccnc3[nH]c(=O)n(c23)-c2cccc(n2)O1 (stereo not drawn)	2	> 370	43	> 370	0.6	6000	> 370	78	> 370	> 370	95 (≈ 29.7 µg/mL)	32	> 370	188	50	820	27	58	< 4	–	clearance [23]: 12 mL/min/kg; Selectivity ratio [15]: > 370; Selectivity ratio [16]: 99; Selectivity ratio [20]: 142; Vd [25]: 1.8 L/kg; Selectivity ratio [21]: 40
